Experimental data: PubChem BioAssay (NCI)
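Protocol summary: plate cells (96-well), add compound at 5 concentrations, incubate 48 h, interpolate endpoints linearly. GI50 marks 50% less growth. TGI: total growth inhibition.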 Where a SMILES comes first, the peptide text is derived from it. Bridges are numbered along the chain shown (N, C = ends). [ ]: non-standard residue; d: D form. The star is where a group is joined. ξ: configuration not given here. ξDab(CH2SO3H) = NC(CCNCS(=O)(=O)O)C(=O)O; Heptanoyl(6-Me) = CC(C)CCCCC(=O)*; Dab = NCC[CH](N)C(=O)O

Tests used:
Test in all cases: growth of human tumour cells (NCI), 48 h
[1] = tested on: CCRF-CEM leukemia
[2] = tested on: EKVX NSCLC
[3] = tested on: HCT-116 colon
[4] = tested on: KM12 colon
[5] = tested on: RXF 393 renal
[6] = tested on: SF-268 CNS
[7] = tested on: SK-MEL-2 melanoma
[8] = tested on: T-47D breast

SMILES | TGI [1] [µM] | GI50 [2] [µM] | TGI [2] [µM] | GI50 [3] [µM] | TGI [3] [µM] | GI50 [4] [µM] | TGI [4] [µM] | GI50 [5] [µM] | TGI [5] [µM] | GI50 [6] [µM] | TGI [6] [µM] | GI50 [7] [µM] | TGI [7] [µM] | GI50 [8] [µM] | TGI [8] [µM] | GI50 [1] [µM]
C[C@]12CC[C@@H]3c4cc(OC(F)F)c(OS(N)(=O)=O)cc4CC[C@H]3[C@@H]1CC[C@@H]2OS(N)(=O)=O | > 70.7 | 1.7 | 22.5 | 0.997 | 13.9 | 1.62 | 20 | 4.16 | 16.1 | 6.44 | 49.8 | 2.79 | 24.9 | 1.56 | 31.7 | 
CCC(C)C1NC(=O)C(CCNCS(=O)(=O)O)NC(=O)C(NC(=O)C(CCNCS(=O)(=O)O)NC(=O)C(NC(=O)C(CCNCS(=O)(=O)O)NC(=O)CCCCC(C)C)C(C)O)CCNC(=O)C(C(C)O)NC(=O)C(CCNCS(=O)(=O)O)NC(=O)C(CCNCS(=O)(=O)O)NC(=O)C(C(C)CC)NC1=O (centres undefined) ({Heptanoyl(6-Me)}-[ξDab(CH2SO3H)]T[ξDab(CH2SO3H)][Dab][ξDab(CH2SO3H)]II[ξDab(CH2SO3H)][ξDab(CH2SO3H)]T; lactam 4-C; configuration not given here) |  | > 25 | > 25 | 7.33 | > 25 | 2.99 | 9.55 | 7.47 | > 25 | 6.88 | > 25 | 4.9 | > 25 | > 25 | > 25 | 
Cc1ccc(NC(=O)c2cc3ccccc3c(N=Nc3cc(S(=O)(=O)O)ccc3O)c2O)c(C)c1 | 19.6 |  | > 100 |  | > 100 |  | 53.9 |  | 63.6 |  | > 100 |  | 78.5 |  | > 100 | 
COc1ccc2c(c1)oc(=O)c1cc(OC)ccc12 | > 100 | 8.99 | > 100 | > 100 | > 100 | > 100 | > 100 | > 100 | > 100 | > 100 | > 100 | > 100 | > 100 | > 100 | > 100 | > 100
COc1cc2ncnc(Nc3cccc(Cl)c3F)c2cc1OC(=O)N1CCN(C)C[C@H]1C | > 100 | 0.253 | > 61.2 | > 38.5 | > 56.9 | > 50.5 | > 88.5 | > 34.4 | > 50.8 | > 37.1 | > 75.3 | > 43.6 | > 61.1 | 2.47 | > 45.5 | > 55.9
COc1cccc(/C=N/NC(=O)c2ccccc2N2CCCC2)c1O | > 100 | 3.32 | > 100 | 3.3 | > 100 | 38.4 | > 100 | 44.4 | > 100 | 6.46 | > 100 | 54 | > 100 | 3.02 | 36.9 | 0.712
COc1ccc(Sc2nc3cc(N)cc(N)c3nc2-c2ccccc2)cc1 | 8.36 |  |  | 14.7 | > 100 | 28.4 | > 100 | > 100 | > 100 | > 100 | > 100 |  |  | > 100 | > 100 | 2.28
COc1ccc(Nc2cc(C)nc(NCc3ccccc3)n2)cc1 | 23.7 | 3.3 | 18.6 | 2.49 | 13 | 6.2 | 21.9 | 3.07 | 14.4 | 13.1 | 36.3 | 6.34 | 23.8 | 2.6 | 11.3 | 3.06
CC/C(=C(/c1ccc(O)cc1)c1ccc(OCCN)cc1)c1ccccc1 | 8.77 |  |  | 1.91 | 4.08 | 1.97 | 3.9 | 2.17 | 7.07 | 3.09 | 9.58 | 3.6 | 8.55 | 1.67 | 5.94 | 2.87
C[C@@H]1CCC([C@@H](C)[C@H]2CC[C@H]3[C@@H]4CC[C@H]5C[C@@H](O)CC[C@]5(C)[C@H]4CC[C@]23C)=NC1 | > 100 |  | > 100 |  | > 100 |  | > 59.7 |  | > 100 |  | > 100 |  | 34.8 |  | > 61.9 | 
COc1cc(C(=O)N2CCN(c3ccccc3)CC2)c2ccccc2n1 | > 100 | 0.243 | > 100 | 0.055 | 28.1 | 0.0412 | 5.19 | 0.0927 | > 100 | 0.2 | > 100 | 0.432 | > 100 | 0.053 | > 100 | 0.128
CCOC(=O)Nc1nc2ccc(Br)cc2s1 | > 50 |  |  | > 50 | > 50 | > 50 | > 50 | > 50 | > 50 | > 50 | > 50 | > 50 | > 50 | > 50 | > 50 | > 50
CCc1nc(N)nc(N)c1-c1ccc2nnn(O)c2c1 | > 100 |  | > 100 |  | > 100 |  | > 100 |  | > 100 |  | > 100 |  | > 100 |  | > 100 | 
C[C@]12CC[C@@H]3c4cc(O)c(O)cc4CC[C@H]3[C@@H]1CC[C@@H]2O | 20.2 |  |  | 4.4 | > 51.4 | 8.23 | 22.3 | 2.44 | 19 | 5.81 | > 83.2 | 3.23 | 22.2 | 7.73 | 27.7 | 1.67
CCCCCCCCCCCC(=O)N1CCN(C(C)=O)CC1 | 40.6 | 33.5 | > 100 | 22.5 | 63.4 | 25 | 56.5 | 15.4 | 33.4 | 39.8 | > 100 | 19.2 | 35.7 |  |  | 18.7
CCOC(=O)c1cc(C(=O)c2cc(OC)c(OC)c(OC)c2)n2c1ccc1ccccc12 | > 100 | 0.461 | > 100 | 0.271 | > 100 | 0.26 | > 100 | 0.22 | 0.81 | 1.94 | > 100 | 0.932 | > 100 | 0.57 | > 100 | 0.322
CC(=O)Nc1c(I)c(NC(C)=O)c(I)c(C(=O)O)c1I | > 100 | > 100 | > 100 | > 100 | > 100 | > 100 | > 100 | > 100 | > 100 |  |  | > 100 | > 100 | > 100 | > 100 | > 100

SMILES | TGI [1] [µM] | GI50 [2] [µM] | TGI [2] [µM] | GI50 [3] [µM] | TGI [3] [µM] | GI50 [4] [µM] | TGI [4] [µM] | GI50 [5] [µM] | TGI [5] [µM] | GI50 [6] [µM] | TGI [6] [µM] | GI50 [7] [µM] | TGI [7] [µM] | GI50 [8] [µM] | TGI [8] [µM] | GI50 [1] [µM]
COc1cc2c(cc1Cc1cccc(Cl)c1F)c(=O)c(C(=O)O)cn2[C@@H](CO)C(C)C | 14.2 | 3.85 | 17.3 | 2.99 | 11.7 | 4.03 | 13.1 | 4.57 | 16.3 | 5.42 | 19.1 | 3.98 | 13.8 | 5.5 | 18.3 | 3.41
S=C(NCCNC(=S)[S][Sn]([c]1ccccc1)([c]1ccccc1)[c]1ccccc1)[S][Sn]([c]1ccccc1)([c]1ccccc1)[c]1ccccc1 | 0.657 | 0.0304 | 0.129 | 0.0127 | 0.0315 | 0.0197 | 0.0652 | 0.01 | 0.0206 | 0.0416 | 0.123 | 0.0823 | 0.215 | 0.02 | 0.091 | 0.0179
COC(=O)C1=CO[C@@H](OC2OC(CO)C(O)C(O)C2O)[C@H]2[C@@H](C)[C@@H](O)[C@@H](O)[C@@H]12 (some centres undefined) |  |  | > 100 |  | > 100 |  | > 100 |  | > 100 |  | > 100 |  | > 100 |  | > 100 | 
Cc1ccc(-c2cc3c4c(nc5ccccc53)C(=O)c3cccnc3-c4n2)cc1 | > 100 | 23.4 | 59.1 | 7.65 | 22.8 | 6.46 | 25.7 | 9.58 | > 100 | 17 | 61.1 | 15 | 38 | 22.7 | 99.4 | 8.04
CC(C)(C)[Si](C)(C)OC1[C@@H](O[Si](C)(C)C(C)(C)C)[C@@H](CNC(=O)NC(=O)CF)O[C@H]1n1cnc2c(NC(=O)Nc3ccccc3)ncnc21 (some centres undefined) | > 50 |  |  | 5.21 | 20.5 | 9.36 | 38.3 | 1.35 | 4.57 | 12.6 | > 50 | 30.9 | > 50 | 4.7 | > 50 | 11.6
C=C1C(=O)O[C@H]2[C@H]1CC/C(C=Nc1c(N)cc(C(F)(F)F)cc1C(F)(F)F)=C\CC[C@@]1(C)O[C@@H]21 | > 100 |  |  | 1.06 | 2.52 | 1.99 | 4.74 | 1.24 | 2.74 | 1.55 | 3.82 | 1.41 | 3.12 | 0.55 | 2.64 | 0.55
O=c1[nH]c(=O)c2cc3cc(C4CC(O)C(CO)O4)ccc3cc2[nH]1 (centres undefined) | > 100 | > 100 | > 100 | > 100 | > 100 |  |  | > 100 | > 100 | > 100 | > 100 | 11.3 | > 100 | > 100 | > 100 | > 100
Cc1cc(O)cc(C)c1/C=C/c1cncc(C(N)=O)c1 | > 25 | 7.93 | > 25 | 1.34 | > 25 | 1.25 | > 25 | 2.36 | 13 | 3.99 | > 25 | 1.25 | 14 | 1.8 | > 25 | 2.88
N#Cc1c(N)n2c(nc1=Nc1ccc(Cl)cc1)sc1cc(Cl)ccc12 |  | 10.2 | > 100 | 6.12 | > 100 | 3.22 |  |  |  | 4.08 | > 100 | 2.01 |  | > 100 | > 100 | 4.21
CN1CCC2(CC1)NC(=O)c1c(c3ccc(Cl)c(Cl)c3n1C)C2C#N (centres undefined) | > 54.8 | 12.4 | 41.1 | 3.11 | 9.17 | 3.84 | 8.55 | 2.27 | 7.3 | 4.54 | 15.2 |  |  | 5.45 | 20.3 | 6.32
CC(N)(/C=C/c1ccccc1)C(=O)O (centres undefined) |  |  | > 100 |  | > 100 |  | > 100 |  |  |  | > 100 |  | > 100 |  |  | 
Cc1cc(Nc2ncc3c(n2)N(C)C(=O)N(c2cc(NC(=O)c4cccc(C(F)(F)F)c4)ccc2C)C3)n(C)n1 | > 46.4 |  |  | 0.0333 | 27.1 | 0.321 | > 46.4 | 0.021 | 0.171 | 0.0291 | > 100 | 0.0245 | 0.0764 | 0.0438 | 2.24 | 2.36
CN(C)CCCCC(C(=O)CBr)(c1ccccc1)c1ccccc1 | 6.45 | 2.22 | 7.42 |  |  | 7.57 | 20.7 | 1.74 | 4.06 | 3.89 | 15.8 | 2.18 | 6.02 | 1.14 | 3.71 | 2.06
CCN1C(=O)N(CC)C2C1NN=c1s/c(=C\c3ccco3)c(=O)n12 (centres undefined) | > 100 | 1.7 | > 100 | 0.436 | > 100 | 0.394 | > 100 | 0.558 | > 23.4 | 0.791 | > 100 | 0.84 | > 100 |  |  | 0.368
COc1cc(-c2oc3c(OC)cc(OC)c(O)c3c(=O)c2OC)cc(OC)c1OC |  |  | > 100 |  | > 100 |  | > 100 |  | > 100 |  | > 100 |  |  |  | > 100 | 
CONC(C)=O | > 100 |  | > 100 |  | > 100 |  | > 100 |  |  |  | > 100 |  | > 100 |  | > 100 | 
